Experimental data published in PMC10853753, “Structure Prediction and Genome Mining‐Aided Discovery of the Bacterial C‐Terminal Tryptophan Prenyltransferase PalQ” (Advanced Science, 2023).

Biological target: T1, PalQ (Paenibacillus alvei, UniProt A0ABT4H1V4)
T1 construct: gene M5X12_20665; homodimer by size exclusion chromatography
T1 sequence (A0ABT4H1V4 1-312): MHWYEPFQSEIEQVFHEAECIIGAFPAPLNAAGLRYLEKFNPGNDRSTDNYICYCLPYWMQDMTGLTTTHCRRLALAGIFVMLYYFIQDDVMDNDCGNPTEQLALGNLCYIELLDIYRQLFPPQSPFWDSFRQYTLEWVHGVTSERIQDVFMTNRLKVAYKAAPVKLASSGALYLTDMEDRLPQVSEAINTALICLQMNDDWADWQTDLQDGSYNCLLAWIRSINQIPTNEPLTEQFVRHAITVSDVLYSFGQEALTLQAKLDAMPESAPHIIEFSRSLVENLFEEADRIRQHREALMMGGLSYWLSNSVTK
Assay: prenylation kinetics, Michaelis-Menten curve
Format: biochemical
Conditions: acceptor PalX; curve without saturation, poor water solubility

| SMILES | prenylation kinetics, Michaelis-Menten curve |
| --- | --- |
| CC(C)=CCC/C(C)=C/COP(=O)(O)OP(=O)(O)O [GPP] | We then assessed the kinetics of PalQ for DMAPP, GPP, and FPP. |
| CC(C)=CCC/C(C)=C/CC/C(C)=C/COP(=O)(O)OP(=O)(O)O [FPP] | We then assessed the kinetics of PalQ for DMAPP, GPP, and FPP. |
